Like-named read-outs stand apart in the source and are kept apart here.
Columns and labels:
MT-2 cells = experiment: Cytotoxicity assay (AlamarBlue) in mock infected MT-2 cells; assay type: cell-based, human
Description: (§1) The present assay was used to screen candidate antiviral compounds by quantification of virus spread and production over several rounds of infection in vitro. MT-2, a HIV-1 permissive human T-cell line, was seeded in microtiter plates and was simultaneously treated with serially diluted compound and inoculated with a HIV-1 NL4-3 viral clone engineered to express Renilla luciferase in place of Net Following treatment, the culture was incubated for 96 hours. After the incubation, media was collected and used to estimate relative infectivity on the indicator cell line, TZM-bl. Additionally, viral spread was quantified by measuring luciferase activity via a commercially available luciferase substrate. In parallel, MT-2 cells were seeded and inoculated with mock virus in the presence of serially diluted compound. Compound toxicity was quantified 96 hours after treatment with AlamarBlue.
(§2) MT-2 (NIH Aids reagent program 237) cells were grown and maintained in an incubator at 37° C. with 5% CO2 using a basal medium of RPMI-1640 supplemented with 10% FBS. Cells were seeded in 100 μl at 2×10^4 cells/well in white walled 96-well microtiter plates. Candidate compounds were 3-fold serially diluted in the appropriate solvent. Solvent without compound was used as a no drug reference. Cells were inoculated at a multiplicity of 0.027 with an HIV-1 NL4-3 virus stock engineered to express Renilla luciferase in place of Net Diluted virus stock was first added to serially diluted compound. Compound and virus were delivered to cells in an equal volume (100 μl) and treated cultures were returned to the incubator for 96 hours. In parallel, plates for cytotoxicity estimates were prepared in the same way except cells were plated in clear walled 96-well microtiter plates and were mock infected.
(§3) At 96 hours post treatment, 20 μl AlamarBlue proliferation reagent was added to 200 μl treated and mock infected cultures and incubated for 3 hours at 37° C. with 5% CO2 then read at 545, 590 nm on fluorescence plate reader (Biotek).
(§4) For all assays, data was imported into Accelrys Assay Explorer 3.3. In Assay Explorer, % inhibition (antiviral or cytotoxicity) was calculated using the solvent control as a reference by the following equation: 1−(SignalCompound/SignalReference). The % Inhibition and compound concentration data was fitted using the following 4-parameter logistic model (Assay Explorer model 42):
(§5) [formula] where X is compound concentration, Y is % inhibition, D is the maximum % Inhibition (constrained to 100%), C is IC50 value or inflection point, B is the hill slope, and A is the minimum % inhibition (constrained to 0%). The IC50 value is reported as the EC50 or CC50 depending on the assay endpoint. EC50 represents the effective concentration at which virus replication is inhibited by 50 percent. CC50 represents the concentration that results in the death of 50 percent of the host cells. The selectivity or therapeutic index (SI or TI), is the ratio of CC50 over EC50 and represents the relative effectiveness in inhibiting viral replication compared to inducing cell death.

[1] = system: HIV-1 NL4-3 viral clone expressing Renilla luciferase; experiment: microbe, parasite or virus in culture; assay type: cell-based
How it was run: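 MT-2 cells (2×10^4/well) were infected at MOI 0.027 with Renilla-luciferase HIV-1 NL4-3 alongside 3-fold compound dilutions for 96 h. Spread was read by EnduRen luminescence and supernatant infectivity on TZM-bl (48 h, MUG fluorescence). Mock-infected cytotoxicity used AlamarBlue. % inhibition versus solvent was fitted by 4-parameter logistic (0–100% constrained) for EC50/CC50.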

[2] = Cytotoxicity assay (AlamarBlue) in mock infected MT-2 cells; assay type: cell-based, human; conditions: human
Description: as §1, §2, §3, §4, §5

[3] = Human immunodeficiency virus 1, NL43, MT2, 96 h
[4] = mock infected MT-2 cells, 96 hours, AlamarBlue, read-out: CC50

SMILES | CC50 (MT-2 cells; human, 96 h) [µM] | EC50 [1, 3] [µM] | further results
COc1cc(C)c(/C=C/C2c3cc(OC)c(OCc4ccccc4)cc3CCN2C(=O)c2ccc(N)nc2)cc1OCc1ccccc1 (centres unmarked) [Example P, (6-amino-3-pyridyl)-[6-benzyloxy-1-[(E)-2-(5-benzyloxy-4-methoxy-2-methyl-phenyl)vinyl]-7-methoxy-3,4-dihydro-1H-isoquinolin-2-yl]methanone] | 100 | 1.69 | –
COc1cc(C)c(/C=C/C2c3cc(OC)c(OCc4ccccc4)cc3CCN2C(N)=O)cc1OCc1ccccc1 (centres unmarked) [Example R, 6-benzyloxy-1-[(E)-2-(5-benzyloxy-4-methoxy-2-methyl-phenyl)vinyl]-7-methoxy-3,4-dihydro-1H-isoquinoline-2-carboxamide] | – | 1.18 | CC50 (MT-2 cells; [4]): 39.3 µM
COc1cc(C(C)(C)C)c(/C=C/C2NCCc3cc(OCc4ccccc4)c(OC)cc32)cc1OCc1ccccc1 (centres unmarked) [AS, 6-Benzyloxy-1-[(E)-2-(5-benzyloxy-2-tert-butyl-4-methoxy-phenyl)vinyl]-7-methoxy-1,2,3,4-tetrahydroisoquinoline] | – | 4.22 | CC50 (MT-2 cells; [4]): 5.36 µM
COc1cc2c(cc1OCc1ccccc1)CCNC2/C=C/c1ccc2cn[nH]c2c1 (centres unmarked) [BT, 6-Benzyloxy-1-[(E)-2-(1H-indazol-6-yl)vinyl]-7-methoxy-1,2,3,4-tetrahydroisoquinoline] | – | – | CC50 (MT-2 cells): 7.98 µM; EC50 ([1]; MT-2 cells infected with HIV-1 NL4-3, 96 hours, read-out: EC50): 0.613 µM
COc1cc(C)c(/C=C/C2c3cc(OC)c(OCc4ccccc4)cc3CCN2C(=O)c2ccccn2)cc1OCc1ccccc1 (centres unmarked) [Example M, [6-benzyloxy-1-[(E)-2-(5-benzyloxy-4-methoxy-2-methyl-phenyl)vinyl]-7-methoxy-3,4-dihydro-1H-isoquinolin-2-yl]-(2-pyridyl)methanone] | 100 | 2.09 | –
COc1cc(C)c(/C=C/C2c3cc(OC)c(OCc4ccccc4)cc3CCN2C(=O)c2cccnc2)cc1OCc1ccccc1 (centres unmarked) [Example T, [6-benzyloxy-1-[(E)-2-(5-benzyloxy-4-methoxy-2-methyl-phenyl)vinyl]-7-methoxy-3,4-dihydro-1H-isoquinolin-2-yl]-(3-pyridyl)methanone] | 100 | 0.93 | –
CCOCc1cc(/C=C/C2NCCc3cc(OCc4ccccc4)c(OC)cc32)ccc1OC (centres unmarked) [EP, (E)-6-(benzyloxy)-1-(3-(ethoxymethyl)-4-methoxystyryl)-7-methoxy-1,2,3,4-tetrahydroisoquinoline] | – | 0.846 | CC50 at 96 h [2]: 4 µM
COc1cc(C)c(/C=C/C2c3cc(OC)c(OCc4ccccc4)cc3CCN2C(=O)c2ccnc(N)c2)cc1OCc1ccccc1 (centres unmarked) [Example N, (2-amino-4-pyridyl)-[6-benzyloxy-1-[(E)-2-(5-benzyloxy-4-methoxy-2-methyl-phenyl)vinyl]-7-methoxy-3,4-dihydro-1H-isoquinolin-2-yl]methanone] | 100 | 2.03 | –
COc1ncc(/C=C/C2NCCc3cc(OCc4ccccc4)c(OC)cc32)cn1 (centres unmarked) [DD, (E)-(benzyloxy)-7-methoxy-1-(2-(2-methoxypyrimidin-5-yl)vinyl)-1,2,3,4-tetrahydroisoquinoline] | 100 | 11.1 | –
COC(=O)N1CCc2cc(OCc3ccccc3)c(OC)cc2C1/C=C/c1cc(OC)c(OC)cc1C (centres unmarked) [Example I, Methyl 6-benzyloxy-1-[(E)-2-(4,5-dimethoxy-2-methyl-phenyl)vinyl]-7-methoxy-3,4-dihydro-1H-isoquinoline-2-carboxylate] | 100 | 4.48 | –

— patent US10195189B2, “2-phenethenyltetrahydro isoquinolines useful as anti-HIV compounds” (priority 2014, dated 2019)
